# Results taken from patent publication US7786041B2, “Synergistic crop plant-compatible herbicidal compositions comprising herbicides from the group of the benzoylcyclohexanediones” (priority 2005, dated 2010).
# Legend:
# [1] = test system: harmful plants Abutilon theophrasti, Ambrosia elatior, Digitaria sanguinalis, Echinochloa crus galli, Pharbitis purpureum, Fallopia convolvulus, Setaria …; assay: Herbicidal post-emergence action, second test series, mean over ten harmful plants; type: in vivo; conditions: Table 5, mean value of the herbicidal actions against ten harmful plants, each herbicide 200 g of a.i./ha, safener C1 100 g of a.i./ha
# Protocol: (§1) Seeds of monocotyledonous and dicotyledonous weed and crop plants are placed into sandy loam in wood fiber pots or in plastic pots, covered with soil and cultivated in a greenhouse, including during the vegetation period outdoors outside of the greenhouse, under good growth conditions. 2-3 weeks after sowing, the test plants are treated at the one- to three-leaf stage. The test compounds, formulated as wettable powders (WP) or liquid (EC) are, in various dosages with a water application rate of 300 l/ha (converted), with added wetting agent (0.2 to 0.3%), sprayed onto the plants and the surface of the soil. 3 to 4 weeks after the treatment of the test plants, the effect of the preparations is rated visually in comparison to untreated controls (herbicidal effect in percent (%): 100% effect=plants have died, 0% effect=like control plants).
# (§2) In a second test series, the herbicidal action and the damage to corn of the compositions according to the invention (A+Bx+C1) was compared to that of the herbicide alone (A) and to that of a herbicidal composition (A+C1) known from the prior art.
# corn = assay: Post-emergence damage to corn, second test series; conditions: in vivo
# Protocol: as §1, §2
structure (smiles),measurement,setting,value
CS(=O)(=O)c1ccc(C(=O)C2C(=O)CCCC2=O)c(Cl)c1COCC(F)(F)F [A],Herbicidal action,[1],86%
same,Damage to corn,corn,11%
